{"source": "patent US9512440B2", "about": "“Modulation of receptor-like kinases for promotion of plant growth” (IOWA STATE UNIVERSITY RESEARCH FOUNDATION, INC., priority 2009, dated 2016)", "key": {"HERK1, THE1 and FER": {"test_system": "HERK1, THE1 and FER", "assay": "quantitative RT-PCR of HERK1, THE1 and FER expression after hormone treatment", "format": "in vivo, Arabidopsis thaliana", "description": "(1A) The expression of HERK1, THE1 and FER is induced by BL treatment in 10-day-old seedlings and 4-week-old adult plants. Triplicate biological samples were used to prepare RNA for quantitative RT PCR. The relative expression levels compared to UBQ5 gene were used to determine the BL-induction levels of each gene. The averages and standard deviations from three biological repeats are shown. […] Ten-day-old seedlings were used to prepare RNA for qRT-PCR as described in (1A). (1C-E) HERK1 cellular localization: A HERK1-GFP (1C) or BES1-D-GFP (1D) construct was introduced into protoplasts or transgenic plants (1E). HERK1 is mostly localized at the plasma membrane (1C and 1E), while BES1-D is primarily in the nucleus (1D). […] Recombinant proteins fused with MBP representing the wild-type HERK1 kinase domain (WT), and a mutant version with disrupted kinase activity (mutant), were used in kinase assay. […] The bars in 1G/1H and 1I represent 2.5 and 10 mm, respectively.\n(8A) Regulation of HERK1, THE1 and FER as well as other CrRLK family members by BL. The data are derived from microarray experiments with light-growing seedlings treated with 10 nM BL for 3 hr, which is published in a public website (http://bbc.botany.utoronto.ca/efp/cgi-bin/efpWeb.cgi). […] The averages and standard deviations for 2 biological replicates are shown. (8C) the herk1 the1 double mutant has a normal GA response in a hypocotyl elongation assay. […]\nFor reverse transcription-polymerase chain reaction (RT-PCR), 2 μg total RNA was reverse-transcribed to cDNA by SuperScript II Reverse Transcriptase (Invitrogen). For real-time quantitative RT-PCR, the primers were designed so that the products are between 200-300 bps. The SYBR Green PCR Master mix (Applied Biosystems) was used and the PCR reactions were run on the Mx4000® multiplex quantitative PCR system (Stratagene). Two or three biological replicates were each analyzed with 2-3 RT-PCR reactions. For semi-quantitative RT-PCR, the same amount of cDNA was used for each PCR reaction. […]"}, "[1]": {"test_system": "wild-type 24-day-old adult plants", "assay": "Affymetrix microarray gene expression, wild-type adult plants with BL", "format": "in vivo, Arabidopsis thaliana", "procedure": "(§1) Microarray experiments were performed with 24-day-old adult plants. The whole plants were sprayed with either water or […] and incubate for 2.5 hours. The plants were pooled into three groups as triplicates (8 plants per group). Total RNA was prepared with RNeasy Plant Mini Kit (QIAGEN) and used to make probes for microarray experiments with Affymetrix Arabidopsis Genomic arrays. The probe labeling, hybridization, and scanning were performed according to manufacture's instructions. Microarray data was normalized by the MAS 5.0 method implemented in the R package affy and the linear model was applied to two sample comparison (samples with and without BL treatment or WT compared to mutant) using the limma package (39, 40). Genes with an adjusted p-value <=0.01 were considered to be differentially expressed. The BR-induced genes, HERK1/THE regulated genes were used for clustering analysis with the GENESPRING program (Silicon Genetics) using Pearson Correlation."}, "[2]": {"test_system": "herk1 the1 double mutant 24-day-old adult plants", "assay": "Affymetrix microarray gene expression, herk1 the1 double mutant adult plants with BL", "format": "in vivo, Arabidopsis thaliana", "procedure": "as §1"}, "CrRLK1L family RLKs": {"test_system": "CrRLK1L family RLKs", "assay": "microarray of CrRLK1L family expression, 2-week-old seedlings with or without BL", "format": "in vivo, Arabidopsis thaliana", "conditions": "wild-type (En-2), BL 1 uM, 3 hr", "procedure": "(9A) The expression of CrRLK family RLKs by BL in WT and bes1-D mutant. Microarrays were performed with 2-week-old seedlings with or without BL treatment (1 uM, 3 hr). At5g38990 and At5g39000 have the same probe set in Affymetrix ATH1 Genome arrays, so only the former is shown. (9B) BR responses of the indicated mutants at the seedling stage, performed as described. (9C) Plant phenotypes of 24-day-old adult plants. The bar represents 10 mm. (9D) Petiole lengths of the sixth leaf in WT and mutants. Averages and standard deviations from 10 plants are shown. (E) A model for HERK signaling and its crosstalk with BR pathway.\nBRs function to regulate cell elongation and many other processes^10-13. BRs signal through a membrane-localized receptor kinase BRI1 and other signaling components^10, 14-16 to control BES1 and BZR1 family transcription factors, which mediate the expression of many genes for BR responses^17-20. […] To further confirm that these RLK genes are modulated by BRs and/or BES1, we performed a microarray experiment with bes-D mutant^19, a constitutive BR response mutant due to highly accumulated BES1 protein, with En-2 as wild-type control (L.L. & Y.Y. in preparation). The expression of all CrRLK1L members is examined (FIG. 5A)."}, "CrRLK family members": {"test_system": "CrRLK family members", "conditions": "10 nM BL for 3 hr; cited from earlier work"}, "[3]": {"conditions": "adult plants, microarray, adjusted p-value <=0.01"}}}
{"smiles": "CC(C)[C@H](C)[C@@H](O)[C@H](O)[C@@H](C)[C@H]1CC[C@H]2[C@@H]3COC(=O)[C@H]4C[C@H](O)[C@H](O)C[C@]4(C)[C@H]3CC[C@]12C", "note": "[BL, brassinolide]", "values": [{"measurement": "up-regulation of HERK1, THE1 and FER expression", "setting": "HERK1, THE1 and FER; seedlings and/or adult plants, relative to UBQ5, p<0.01", "result": "20-80%"}, {"measurement": "gene expression level At3g45960 (EXPL3)", "setting": "[1]; WT + BL, WT-BL 24", "result": 92}, {"measurement": "gene expression level AT1G10550 (XTH33)", "setting": "[1]; WT + BL, WT-BL 47", "result": 223}, {"measurement": "gene expression level At1g65310 (XTH17)", "setting": "[1]; WT + BL, WT-BL 137", "result": 214}, {"measurement": "gene expression level At1g20190 (EXP11)", "setting": "[1]; WT + BL, WT-BL 141", "result": 395}, {"measurement": "gene expression level At4g30290 (XTH19)", "setting": "[1]; WT + BL, WT-BL 153", "result": 297}, {"measurement": "gene expression level At4g38400 (EXPL2)", "setting": "[1]; WT + BL, WT-BL 188", "result": 433}, {"measurement": "gene expression level At2g20750 (EXPB1)", "setting": "[1]; WT + BL, WT-BL 295", "result": 198}, {"measurement": "gene expression level At2g37640 (EXP3)", "setting": "[1]; WT + BL, WT-BL 384", "result": 641}, {"measurement": "gene expression level At3g07010 (PLL20)", "setting": "[1]; WT + BL, WT-BL 427", "result": 939}, {"measurement": "gene expression level AT1G11545 (XTH8)", "setting": "[1]; WT + BL, WT-BL 453", "result": 1178}, {"measurement": "gene expression level At3g23730 (XTH16)", "setting": "[1]; WT + BL, WT-BL 559", "result": 819}, {"measurement": "gene expression level At3g45970 (EXPL1)", "setting": "[1]; WT + BL, WT-BL 581", "result": 1339}, {"measurement": "gene expression level At2g40610 (EXP8)", "setting": "[1]; WT + BL, WT-BL 1006", "result": 2407}, {"measurement": "gene expression level AT5G57560 (XTH22)", "setting": "[1]; WT + BL, WT-BL 2277", "result": 7344}, {"measurement": "gene expression level At3g29030 (EXP5)", "setting": "[1]; WT + BL, WT-BL 2323", "result": 2112}, {"measurement": "gene expression level At1g04680 (PLL26)", "setting": "[1]; WT + BL, WT-BL 2466", "result": 3402}, {"measurement": "gene expression level At4g37800 (XTH7)", "setting": "[1]; WT + BL, WT-BL 2899", "result": 3419}, {"measurement": "gene expression level At2g28950 (EXP6)", "setting": "[1]; WT + BL, WT-BL 3287", "result": 2524}, {"measurement": "gene expression level At1g69530 (EXP1)", "setting": "[1]; WT + BL, WT-BL 6798", "result": 8465}, {"measurement": "gene expression level At2g06850 (XTH4)", "setting": "[1]; WT + BL, WT-BL 7247", "result": 13455}, {"measurement": "number of genes whose expression BL induces", "setting": "[1]; [3]", "result": 650}, {"measurement": "number of genes whose expression BL represses", "setting": "[1]; [3]", "result": 520}, {"measurement": "gene expression level At3g45960 (EXPL3)", "setting": "[2]; herk1 the1-BL 18", "result": 44}, {"measurement": "gene expression level At1g20190 (EXP11)", "setting": "[2]; herk1 the1-BL 35", "result": 225}, {"measurement": "gene expression level AT1G10550 (XTH33)", "setting": "[2]; herk1 the1-BL 48", "result": 191}, {"measurement": "gene expression level At1g65310 (XTH17)", "setting": "[2]; herk1 the1-BL 95", "result": 302}, {"measurement": "gene expression level At4g38400 (EXPL2)", "setting": "[2]; herk1 the1-BL 151", "result": 381}, {"measurement": "gene expression level At2g20750 (EXPB1)", "setting": "[2]; herk1 the1-BL 161", "result": 157}, {"measurement": "gene expression level At4g30290 (XTH19)", "setting": "[2]; herk1 the1-BL 162", "result": 259}, {"measurement": "gene expression level At3g07010 (PLL20)", "setting": "[2]; herk1 the1-BL 325", "result": 829}, {"measurement": "gene expression level At2g37640 (EXP3)", "setting": "[2]; herk1 the1-BL 340", "result": 594}, {"measurement": "gene expression level AT1G11545 (XTH8)", "setting": "[2]; herk1 the1-BL 357", "result": 1249}, {"measurement": "gene expression level At2g40610 (EXP8)", "setting": "[2]; herk1 the1-BL 437", "result": 1586}, {"measurement": "gene expression level At3g45970 (EXPL1)", "setting": "[2]; herk1 the1-BL 529", "result": 970}, {"measurement": "gene expression level At3g23730 (XTH16)", "setting": "[2]; herk1 the1-BL 636", "result": 1069}, {"measurement": "gene expression level At3g29030 (EXP5)", "setting": "[2]; herk1 the1-BL 1523", "result": 1848}, {"measurement": "gene expression level At4g37800 (XTH7)", "setting": "[2]; herk1 the1-BL 1831", "result": 2864}, {"measurement": "gene expression level At1g04680 (PLL26)", "setting": "[2]; herk1 the1-BL 1982", "result": 2932}, {"measurement": "gene expression level At2g28950 (EXP6)", "setting": "[2]; herk1 the1-BL 2074", "result": 1919}, {"measurement": "gene expression level AT5G57560 (XTH22)", "setting": "[2]; herk1 the1-BL 2728", "result": 7941}, {"measurement": "gene expression level At1g69530 (EXP1)", "setting": "[2]; herk1 the1-BL 3595", "result": 6462}, {"measurement": "gene expression level At2g06850 (XTH4)", "setting": "[2]; herk1 the1-BL 5096", "result": 11194}, {"measurement": "regulation of FER, THE1, HERK1, At1g30570 (HERK2), At2g39360 and At5g24010", "setting": "CrRLK1L family RLKs", "result": "slightly upregulated"}, {"measurement": "induction of HERK1, THE1 and FER among CrRLK family members", "setting": "CrRLK family members", "result": "most highly induced"}, {"measurement": "regulation of At2g39360, At5g24010, At1g30570, At5g38990/At5g39000 and At5g39020", "setting": "CrRLK family members", "result": "slightly induced"}]}
{"smiles": "C=C1C[C@]23C[C@@]1(O)CC[C@H]2[C@@]12C=C[C@H](O)[C@@](C)(C(=O)O1)[C@H]2[C@@H]3C(=O)O", "note": "[GA3]", "values": [{"measurement": "regulation of expression of HERK1, THE1, and FER", "setting": "HERK1, THE1 and FER; 10-day-old seedlings, qRT-PCR", "result": "up-regulates"}]}
{"smiles": "O=C(O)Cc1c[nH]c2ccccc12", "note": "[IAA]", "values": [{"measurement": "regulation of expression of HERK1", "setting": "HERK1, THE1 and FER; 10-day-old seedlings, qRT-PCR", "result": "appears to induce"}]}
